This passage reports CC50 results from paper PMC6792352, “Limited Chemical Structural Diversity Found to Modulate Thyroid Hormone Receptor in the Tox21 Chemical Library” (Environmental Health Perspectives, 2019).

Structures can show the parent of a compound that is named as a salt.

One data set can be described thus: in vitro. The following applies: rat, gh3-tre-luc cells, AC50 (uM) modified / 1000.
`N=C(N)c1ccc(OCCCOc2ccc(C(=N)N)cc2)cc1` [Propamidine] gave a CC50 at 24 h of over 50 µM. The same measure, in the same setting: as for `CCCOC(=O)NCCCN(C)C` [Propamocarb hydrochloride], the figure is over 90 µM. In turn, `CCCCC(CC)C(=O)OC(C)C` (stereo not shown) [Propan-2-yl 2-ethylhexanoate] gave a CC50 at 24 h of over 90 µM. With `CC(C)OC(=O)c1ccccc1` [Propan-2-yl benzoate], the cytotoxic concentration (CC50) at 24 h was over 100 µM. On the same count and under the same terms, as for `CCC=O` [Propanal], the figure is over 90 µM.

Compound `Nc1ccc(C(=O)OCCCOC(=O)c2ccc(N)cc2)cc1` [Propane-1,3-diyl bis(4-aminobenzoate)] gave a CC50 at 24 h of over 90 µM. Turning to `O=C(O)CC(=O)O` [Propanedioic acid], the CC50 at 24 h was over 90 µM. On the same count and under the same terms, as for `CCC(=O)Nc1ccc(Cl)c(Cl)c1` [Propanil], the figure is over 90 µM. The same measure, in the same setting: the figure for `CCCOC(=O)C(C)O` (stereo not shown) [Propanoic acid,2-hydroxy-,propylester] is over 90 µM; for `CCC(=O)OC(=O)CC` [Propanoic anhydride] it is over 90 µM.

As to `CC(C)[N+](C)(CCOC(=O)C1c2ccccc2Oc2ccccc21)C(C)C` [Propantheline bromide], the half-maximal cytotoxic concentration (CC50) at 24 h is over 90 µM.

`CCCOc1ccc(C(=O)OCCN(CC)CC)cc1N` [Proparacaine hydrochloride]: the CC50 at 24 h was over 50 µM. `CCCn1cnc2c1c(=O)n(CCCCC(C)=O)c(=O)n2C` [Propentofylline]: the CC50 at 24 h was over 50 µM.

`CCC(Oc1ccccc1)C(=O)N[C@@H]1C(=O)N2[C@@H]1SC(C)(C)[C@@H]2C(=O)O` (stereo partly shown) [Propicillin] yielded a CC50 at 24 h of over 50 µM. Same read-out and setting: as for `CCCC1COC(Cn2cncn2)(c2ccc(Cl)cc2Cl)O1` (stereo not shown) [Propiconazole], the figure is 61 µM; as for `CCC#N` [Propionitrile], over 100 µM.

For the compound `CCC(=O)c1ccc2c(c1)N(CCCN(C)C)c1ccccc1S2` [Propionylpromazine hydrochloride], the midpoint of cytotoxicity, the CC50 at 24 h, lay at 6.21 µM.

Take `CCCOC(C(=O)OC1CCN(C)CC1)(c1ccccc1)c1ccccc1` [Propiverine hydrochloride]: it took 14.7 µM to reach half-maximal cytotoxicity (CC50 at 24 h). This CC50 at 24 h is about 2.4-fold higher than that of the compound before. The compound `CC(C)c1cccc(C(C)C)c1O` [Propofol] returned a CC50 at 24 h of over 90 µM.

Compound `CNC(=O)Oc1ccccc1OC(C)C` [Propoxur] gave a CC50 at 24 h of over 90 µM. Same read-out and setting: as for `CCCOc1cc(N)ccc1C(=O)OCCN(CC)CC` [Propoxycaine hydrochloride], the figure is over 20 µM; as for `CCCOc1nn(C(=O)NS(=O)(=O)c2ccccc2C(=O)OC)c(=O)n1C` [Propoxycarbazone-sodium], over 90 µM; as for `CCCOC(C)=O` [Propyl acetate], over 90 µM. For the compound `CCCOC(=O)c1ccccc1` [Propyl benzoate], the CC50 at 24 h was over 90 µM. On the same count and under the same terms, as for `CCCOCCC` [Propyl ether], the figure is over 90 µM. Turning to `CCCOC(=O)CC` [Propyl propionate], the 50% cytotoxic concentration (CC50) at 24 h is over 90 µM. The same measure, in the same setting: the figure for `CCCOC(=O)c1ccccc1O` [Propyl salicylate] is over 50 µM; for `CCCN` [Propylammonium nitrate] it is over 90 µM. On the same count and under the same terms, the figure for `CCCc1ccccc1` [Propylbenzene] is over 90 µM; for `CC1COC(=O)O1` (stereo not shown) [Propylene carbonate] it is over 90 µM; for `CC(=O)OCC(C)OC(C)=O` (stereo not shown) [Propylene glycol diacetate] it is over 90 µM. The same measure, in the same setting: as for `CCCCCCCCC(=O)OCC(C)OC(=O)CCCCCCCC` (stereo not shown) [Propylene glycol dipelargonate], the figure is over 100 µM; as for `CC1CN1` (stereo not shown) [Propyleneimine], over 90 µM. `CCCOC(=O)c1ccc(O)cc1` [Propylparaben]: the 50% cytotoxic concentration (CC50) at 24 h was over 90 µM.

Compound `Cc1c(C(C)C)c(=O)n(-c2ccccc2)n1C` [Propyphenazone] gave a CC50 at 24 h of over 50 µM. Compound `C#CC(C)(C)NC(=O)c1cc(Cl)cc(Cl)c1` [Propyzamide] gave a CC50 at 24 h of over 90 µM. Same read-out and setting: as for `O=C(CCN1CCC(c2ccccc2)C1)c1ccc2c(c1)OCCO2` (stereo not shown) [Proroxan], the figure is 38.9 µM. On the same count and under the same terms, as for `CCCSS/C(CCO)=C(/C)N(C=O)Cc1cnc(C)nc1N` [Prosultiamine], the figure is 22.5 µM; as for `CCCc1cc(C(N)=S)ccn1` [Prothionamide], over 50 µM; as for `NC(=O)[C@@H]1CCCN1C(=O)[C@H](Cc1cnc[nH]1)NC(=O)[C@@H]1CCC(=O)N1` [Protirelin], over 50 µM. `C=CC1=C(C)c2cc3[nH]c(cc4nc(cc5[nH]c(cc1n2)c(C)c5CCC(=O)O)C(CCC(=O)O)=C4C)c(C)c3C=C` [Protoporphyrin disodium] gave a 50% cytotoxic concentration (CC50) at 24 h of over 50 µM.

As to `CNCCCC1c2ccccc2C=Cc2ccccc21` [Protriptyline hydrochloride], the CC50 at 24 h was determined as 7.1 µM. On the same count and under the same terms, the figure for `CC(C)OC(=S)S` [Proxan-sodium] is over 90 µM; for `CCC(c1ccccc1)c1noc(CCN(CC)CC)n1` (stereo not shown) [Proxazole citrate] it is over 50 µM; for `CC(O)Cn1cnc2c1c(=O)n(C)c(=O)n2C` (stereo not shown) [Proxyphylline] it is over 20 µM. Still for that read-out and setting: as for `Cc1oc(=O)oc1CN1CCN(c2cc3c(cc2F)c(=O)c(C(=O)O)c2n3C(C)S2)CC1` (stereo not shown) [Prulifloxacin], the figure is over 50 µM. The same measure, in the same setting: as for `CN(C)CCc1c[nH]c2cccc(O)c12` [Psilocin], the figure is over 90 µM.

`CN(C)CCc1c[nH]c2cccc(OP(=O)(O)O)c12` [Psilocybin]: the 50% cytotoxic concentration (CC50) at 24 h is over 90 µM. The same measure, in the same setting: the figure for `COc1ccc(C[C@H](N)C(=O)N[C@H]2[C@@H](O)[C@H](n3cnc4c(N(C)C)ncnc43)O[C@@H]2CO)cc1` [Puromycin dihydrochloride] is 11.2 µM; for `O=C1c2ccccc2C(=O)c2c(O)c(O)cc(O)c21` [Purpurin] it is 71.9 µM; for `CC1=NNC(=O)N(/N=C/c2cccnc2)C1` [Pymetrozine] it is over 90 µM. `COC(=O)N(OC)c1ccccc1COc1ccn(-c2ccc(Cl)cc2)n1` [Pyraclostrobin] registered a CC50 at 24 h of 59.8 µM. Compound `CN1CCCN=C1/C=C/c1cccs1` [Pyrantel tartrate] came in with a CC50 at 24 h of over 50 µM. Same read-out and setting: the figure for `c1ccc2c(c1)Sc1ccccc1N2CCN1CCCC1` [Pyrathiazine] is 19.5 µM. On the same count and under the same terms, as for `NC(=O)c1cnccn1` [Pyrazinamide], the figure is over 90 µM; as for `c1cnccn1` [Pyrazine], over 90 µM; as for `SCCc1cnccn1` [Pyrazineethanethiol], over 90 µM.

In turn, `CSc1cnccn1` [Pyrazinyl methyl sulfide] showed a half-maximal cytotoxic concentration (CC50) at 24 h of over 90 µM.

`CNC(=O)OCc1cccc(COC(=O)NC)n1` [Pyricarbate] had a 50% cytotoxic concentration (CC50) at 24 h of over 50 µM. On to `CC(C)(C)c1ccc(CSc2cnn(C(C)(C)C)c(=O)c2Cl)cc1` [Pyridaben], for which the half-maximal cytotoxic concentration (CC50) at 24 h was found to be 47.4 µM.

Consider `CCCCCCCCSC(=O)Oc1cc(Cl)nnc1-c1ccccc1` [Pyridate], for which the CC50 at 24 h was over 90 µM. The same measure, in the same setting: the figure for `c1ccncc1` [Pyridine hydrochloride] is over 90 µM; for `CN(C)C(=O)Oc1ccc[n+](C)c1` [Pyridostigmine bromide] it is over 50 µM. `Cc1ncc(COP(=O)(O)O)c(C=O)c1O` [Pyridoxal phosphate hydrate] came in with a CC50 at 24 h of over 50 µM. Still for that read-out and setting: as for `Cc1ncc(CO)c(C=O)c1O` [Pyridoxal], the figure is over 50 µM; as for `Cc1ncc(CO)c(CN)c1O` [Pyridoxamine dihydrochloride], over 50 µM.

`Cc1ncc(COP(=O)(O)O)c(CN)c1O` [Pyridoxamine phosphate] showed a CC50 at 24 h of over 50 µM.

`Cc1ncc(CO)c(CO)c1O` [Pyridoxine] showed a CC50 at 24 h of over 50 µM.

Still in this data set, the particulars now being: rat, gh3-tre-luc cells, AC50 (uM) modified / 1000, Tox21_110001=Tox21_110442; viability, 1 nM T3 present, 24 h.
The compound `C[C@@H]1O[C@@H](O[C@@H]2C=C3CC[C@@H]4[C@H](CC[C@]5(C)[C@@H](c6ccc(=O)oc6)CC[C@]45O)[C@@]3(C)CC2)[C@H](O)[C@H](O)[C@H]1O` [Proscillaridin] came in with a CC50 at 24 h of over 20 µM.

The same data set, now with this note: rat, gh3-tre-luc cells, AC50 (uM) modified / 1000, Tox21_110001=Tox21_113307; viability, 1 nM T3 present, 24 h.
The compound `CCCOC(=O)Cc1ccc(OCC(=O)N(CC)CC)c(OC)c1` [Propanidid] yielded a CC50 at 24 h of over 50 µM.

Staying with this data set, now noted: rat, gh3-tre-luc cells, AC50 (uM) modified / 1000, Tox21_110001=Tox21_200976; viability, 1 nM T3 present, 24 h.
For `C#CCO` [Propargyl alcohol], the 50% cytotoxic concentration (CC50) at 24 h is over 90 µM.

Staying with this data set, now noted: rat, gh3-tre-luc cells, AC50 (uM) modified / 1000, Tox21_110001=Tox21_201394; viability, 1 nM T3 present, 24 h.
In turn, `CC(C)Nc1nc(Cl)nc(NC(C)C)n1` [Propazine] returned a CC50 at 24 h of over 90 µM.

The data set is the same for the next values; noted with them: rat, gh3-tre-luc cells, AC50 (uM) modified / 1000, Tox21_110001=Tox21_201664; viability, 1 nM T3 present, 24 h.
Consider `CC(C)OC(=O)Nc1ccccc1` [Propham], for which the CC50 at 24 h is over 90 µM.

Still in this data set, the particulars now being: rat, gh3-tre-luc cells, AC50 (uM) modified / 1000, Tox21_110001=Tox21_300698; viability, 1 nM T3 present, 24 h.
Compound `CCOC(=O)COc1cc(-c2nn(C)c(OC(F)F)c2Cl)c(F)cc1Cl` [Pyraflufen-ethyl] gave a CC50 at 24 h of over 90 µM.

The same data set, now with this note: rat, gh3-tre-luc cells, AC50 (uM) modified / 1000, Tox21_110001=Tox21_300863; viability, 1 nM T3 present, 24 h.
With `CCNP(=S)(OC)O/C(C)=C/C(=O)OC(C)C` (stereo not shown) [Propetamphos], the half-maximal cytotoxic concentration (CC50) at 24 h was over 90 µM.

Staying with this data set, now noted: rat, gh3-tre-luc cells, AC50 (uM) modified / 1000, Tox21_110001=Tox21_301196; viability, 1 nM T3 present, 24 h.
As for `N#CCC#N` [Propanedinitrile], the CC50 at 24 h came to 40.5 µM. This counts as double-digit micromolar.

Still in this data set, the particulars now being: rat, gh3-tre-luc cells, AC50 (uM) modified / 1000, Tox21_110001=Tox21_301219; viability, 1 nM T3 present, 24 h.
On to `CCCSP(=S)(OCC)Oc1ccc(Cl)cc1Cl` (stereo not shown) [Prothiofos], for which the CC50 at 24 h is over 90 µM.

Staying with this data set, now noted: rat, gh3-tre-luc cells, AC50 (uM) modified / 1000, Tox21_110001=Tox21_301359; viability, 1 nM T3 present, 24 h.
Turning to `CCOC(=O)c1cn2nc(OP(=S)(OCC)OCC)cc2nc1C` [Pyrazophos], the CC50 at 24 h was over 90 µM.

The same data set, now with this note: rat, gh3-tre-luc cells, AC50 (uM) modified / 1000, Tox21_110001=Tox21_400063; viability, 1 nM T3 present, 24 h.
The compound `c1cc2ccc3cccc4ccc(c1)c2c34` [Pyrene] gave a CC50 at 24 h of over 100 µM.
